Results taken from patent US11274332B2, “Methods of administering 3,4-diaminopyridine” (SERB SA, priority 2011, dated 2022).
“And” between values parts separate entries of the source, which are not always exact repeats. Equal values may be shown once.

Experiment: Food-effect crossover study, adverse events after single 20 mg amifampridine phosphate in healthy subjects (Examples 10, 11)
Format: in vivo
Method: This was a randomized, open-label, 2-treatment, 2-period crossover study with 44 completed subjects to assess the safety, tolerability, and the effect of food on the relative bioavailability of a single dose of amifampridine phosphate.
Safety was evaluated for all subjects who take at least one dose of 3,4-DAP. Safety was evaluated by recording the incidence of adverse events (AEs), physical examination, vital signs, concomitant medications, clinical laboratory assessments, and 12-lead electrocardiogram (ECG).
Analysis for the following safety parameters was carried out on the Safety Population: AEs which included all AEs, AEs by severity, drug-related AEs, deaths, SAEs, AEs leading to study discontinuation, and most frequent AEs, standard clinical laboratory tests, vital signs, ECG measurements, routine physical examinations, and prior and concomitant medications. The cut-off for frequency of AEs reported was determined based on the data. No formal statistical testing was performed for the safety analyses; only descriptive statistics were provided. Appropriate descriptive statistics for the safety data were determined using SAS Version 9.2.
AEs were coded according to the Medical Dictionary for Regulatory Activities (MedDRA; Version 13.0). […] The occurrence of AEs was assessed continuously from the time the subject signed the VID and consent. The reporting period for non-serious AEs was from the first dose to the final study visit. The investigator determined the severity of each event and the relationship of an AE to the IP and recorded it on the source documents and AE CRF. The nature, time of onset, duration, severity, and relationship to study drug was documented, including documentation of investigator assessment and review. All events were assessed to determine if the AE was serious.
The Investigator determined the severity of each event and the event was recorded on the source documents and AE CRF. A coding of “mild” meant there was no limitation of usual activities, “moderate” meant there was some limitation of usual activities, “severe” meant there was an inability to carry out usual activities.
The reporting period for AEs that met the criteria of an SAE began from the time of signing the VID and consent form through follow-up or early termination. […] Clinical Laboratory Assessments

Nc1ccncc1N.O=P(O)(O)O [amifampridine phosphate, 3,4-diaminopyridine phosphate]
2%: Discontinued due to adverse events: % of subjects (Fed N=46) | Flushing, drug-related AE: % of subjects (Fed N=46) | Headache, drug-related AE: % of subjects (Fed N=46) | Nausea, drug-related AE: % of subjects (Fed N=46) | Vascular Disorders Total, drug-related AE: % of subjects (Fed N=46)
3: Fatigue, drug-related AE: events (Fed N=46) | Fatigue, drug-related AE: subjects (Fed N=46) | General Disorders and Administration Site Conditions Total, drug-related AE: events (Fed N=46) | General Disorders and Administration Site Conditions Total, drug-related AE: subjects (Fed N=46) | Hypoaesthesia Oral, drug-related AE: events (Fed N=46) | Hypoaesthesia Oral, drug-related AE: subjects (Fed N=46)
17: Nervous System Disorders Total, drug-related AE: subjects (Fed N=46)
41: All treatment emergent AEs, Mild: events (Female N=16)
24 and 23: All treatment emergent AEs, Total: subjects (Fed N=46, phosphate)
8: Paraesthesia, drug-related AE: events (Fed N=46) | Gastrointestinal Disorders Total, drug-related AE: events (Female N=16)
46%: Possibly or probably related AEs, Mild: % of subjects (Fed N=46) | Possibly or probably related AEs, Total: % of subjects (Fed N=46)
0: Diarrhoea, drug-related AE: subjects (Fed N=46) | Feeling Hot, drug-related AE: subjects (Fed N=46) | Hypoaesthesia Facial, drug-related AE: subjects (Fed N=46) | Hypoaesthesia, drug-related AE: subjects (Fed N=46) | Possibly or probably related AEs, Moderate: subjects (Fed N=46) | Possibly or probably related AEs, Severe: subjects (Fed N=46) | Serious adverse events: subjects (Fed N=46) | Skin and Subcutaneous Tissue Disorders Total, drug-related AE: subjects (Fed N=46) | Acne, drug-related AE: subjects (Female N=16) | All treatment emergent AEs, Severe: subjects (Female N=16) | Discontinued due to adverse events: subjects (Female N=16) | Dysgeusia, drug-related AE: subjects (Female N=16) | Feeling Hot, drug-related AE: subjects (Female N=16)
1: Discontinued due to adverse events: events (Fed N=46) | Discontinued due to adverse events: subjects (Fed N=46) | Flushing, drug-related AE: events (Fed N=46) | Flushing, drug-related AE: subjects (Fed N=46) | Headache, drug-related AE: events (Fed N=46) | Headache, drug-related AE: subjects (Fed N=46) | Nausea, drug-related AE: events (Fed N=46) | Nausea, drug-related AE: subjects (Fed N=46) | Vascular Disorders Total, drug-related AE: events (Fed N=46) | Vascular Disorders Total, drug-related AE: subjects (Fed N=46) | Abdominal Pain Upper, drug-related AE: events (Female N=16) | Abdominal Pain Upper, drug-related AE: subjects (Female N=16) | Abdominal Tenderness, drug-related AE: events (Female N=16) | Abdominal Tenderness, drug-related AE: subjects (Female N=16) | Constipation, drug-related AE: events (Female N=16) | Constipation, drug-related AE: subjects (Female N=16) | Diarrhoea, drug-related AE: events (Female N=16) | Diarrhoea, drug-related AE: subjects (Female N=16) | Flushing, drug-related AE: events (Female N=16) | Flushing, drug-related AE: subjects (Female N=16)
15%: Paraesthesia, drug-related AE: % of subjects (Fed N=46)
2: Dizziness, drug-related AE: events (Fed N=46) | Dizziness, drug-related AE: subjects (Fed N=46) | Dysgeusia, drug-related AE: events (Fed N=46) | Dysgeusia, drug-related AE: subjects (Fed N=46) | Gastrointestinal Disorders Total, drug-related AE: events (Fed N=46) | Gastrointestinal Disorders Total, drug-related AE: subjects (Fed N=46) | Abdominal Pain, drug-related AE: events (Female N=16) | Abdominal Pain, drug-related AE: subjects (Female N=16) | All treatment emergent AEs, Moderate: events (Female N=16) | All treatment emergent AEs, Moderate: subjects (Female N=16) | Fatigue, drug-related AE: events (Female N=16) | Fatigue, drug-related AE: subjects (Female N=16)
37%: Nervous System Disorders Total, drug-related AE: % of subjects (Fed N=46)
12: All treatment emergent AEs, Mild: subjects (Female N=16) | All treatment emergent AEs, Total: subjects (Female N=16)
6%: Abdominal Pain Upper, drug-related AE: % of subjects (Female N=16) | Abdominal Tenderness, drug-related AE: % of subjects (Female N=16) | Constipation, drug-related AE: % of subjects (Female N=16) | Diarrhoea, drug-related AE: % of subjects (Female N=16) | Flushing, drug-related AE: % of subjects (Female N=16)
5: Dizziness, drug-related AE: events (Female N=16) | Gastrointestinal Disorders Total, drug-related AE: subjects (Female N=16)
7%: Fatigue, drug-related AE: % of subjects (Fed N=46) | General Disorders and Administration Site Conditions Total, drug-related AE: % of subjects (Fed N=46) | Hypoaesthesia Oral, drug-related AE: % of subjects (Fed N=46)
31: Nervous System Disorders Total, drug-related AE: events (Fed N=46)
13%: Abdominal Pain, drug-related AE: % of subjects (Female N=16) | All treatment emergent AEs, Moderate: % of subjects (Female N=16) | Fatigue, drug-related AE: % of subjects (Female N=16) | General Disorders and Administration Site Conditions Total, drug-related AE: % of subjects (Female N=16)
37: Possibly or probably related AEs, Mild: events (Fed N=46) | Possibly or probably related AEs, Total: events (Fed N=46)
13: Paraesthesia Oral, drug-related AE: subjects (Fed N=46)
43: All treatment emergent AEs, Total: events (Female N=16)
28%: Paraesthesia Oral, drug-related AE: % of subjects (Fed N=46)
4: Dizziness, drug-related AE: subjects (Female N=16)
25%: Dizziness, drug-related AE: % of subjects (Female N=16)
75%: All treatment emergent AEs, Mild: % of subjects (Female N=16)
7: Paraesthesia, drug-related AE: subjects (Fed N=46)
4%: Dizziness, drug-related AE: % of subjects (Fed N=46) | Dysgeusia, drug-related AE: % of subjects (Fed N=46) | Gastrointestinal Disorders Total, drug-related AE: % of subjects (Fed N=46)
31%: Gastrointestinal Disorders Total, drug-related AE: % of subjects (Female N=16)
(0%) [0]: Diarrhoea, drug-related AE: % of subjects (Fed N=46) | Diarrhoea, drug-related AE: events (Fed N=46) | Feeling Hot, drug-related AE: % of subjects (Fed N=46) | Feeling Hot, drug-related AE: events (Fed N=46) | Hypoaesthesia Facial, drug-related AE: % of subjects (Fed N=46) | Hypoaesthesia Facial, drug-related AE: events (Fed N=46) | Hypoaesthesia, drug-related AE: % of subjects (Fed N=46) | Hypoaesthesia, drug-related AE: events (Fed N=46) | Possibly or probably related AEs, Moderate: % of subjects (Fed N=46) | Possibly or probably related AEs, Moderate: events (Fed N=46) | Possibly or probably related AEs, Severe: % of subjects (Fed N=46) | Possibly or probably related AEs, Severe: events (Fed N=46) | Serious adverse events: % of subjects (Fed N=46) | Serious adverse events: events (Fed N=46) | Skin and Subcutaneous Tissue Disorders Total, drug-related AE: % of subjects (Fed N=46) | Skin and Subcutaneous Tissue Disorders Total, drug-related AE: events (Fed N=46) | Acne, drug-related AE: % of subjects (Female N=16) | Acne, drug-related AE: events (Female N=16) | All treatment emergent AEs, Severe: % of subjects (Female N=16) | All treatment emergent AEs, Severe: events (Female N=16) | Discontinued due to adverse events: % of subjects (Female N=16) | Discontinued due to adverse events: events (Female N=16) | Dysgeusia, drug-related AE: % of subjects (Female N=16) | Dysgeusia, drug-related AE: events (Female N=16) | Feeling Hot, drug-related AE: % of subjects (Female N=16) | Feeling Hot, drug-related AE: events (Female N=16)
21: Possibly or probably related AEs, Mild: subjects (Fed N=46) | Possibly or probably related AEs, Total: subjects (Fed N=46)
15: Paraesthesia Oral, drug-related AE: events (Fed N=46)
